Columns and labels:
VIOAR [1] = assay: Greenhouse trial, pre-emergence (PE) soil application, action against weeds; type: in vivo, Viola arvensis; conditions: g of AS/ha: (A) 90, (B) 300, (C) mefenpyr 300, about 3 weeks after application
Experimental: (§1) In the standard design of the test, seeds of various broad-leaved weed and weed grass biotypes (origins) were sown in a 8-13 cm diameter pot filled with natural soil of a standard field soil (loamy silt; non-sterile) and covered with a covering soil layer of about 1 cm. The pots were then cultivated in a greenhouse (12-16 h of light, temperature day 20-22° C., night 15-18° C.) until the time of application. The pots were treated on a laboratory track sprayer with spray liquors comprising the compositions according to the invention, mixtures of the prior art or components used individually. Application of the active compounds or active compound combinations formulated as WG, WP, EC or otherwise was carried out at the appropriate growth stages of the plants. The application rate for the spray application was 100-600 l of water/ha. After the treatment, the plants were returned to the greenhouses.
(§2) About 3 weeks after the application, the soil action or/and foliar action was assessed visually according to a scale of 0-100% in comparison to an untreated comparative group: 0%=no noticeable effect compared to the untreated comparative group; 100%=full effect compared to the untreated comparative group. […]

TRZAW [2] = assay: Greenhouse trial, selective pre-emergence action (PE application), crop plant; type: in vivo, Triticum aestivum, winter wheat; conditions: g of AS/ha: (A) 90, (B) 300, (C) mefenpyr 300
Experimental: as §1, §2

TRZAS [3] = assay: as above; type: in vivo, Triticum aestivum, summer wheat
Experimental: as §1
(§3) About 3 weeks after the application, the soil action or/and foliar action was assessed visually according to a scale of 0-100% in comparison to an untreated comparative group: 0%=no noticeable effect compared to the untreated comparative group; 100%=full effect compared to the untreated comparative group.
(§4) (notes: the term “seeds” also includes vegetative propagation forms such as, for example, rhizome pieces; abbreviations used: h light=hours of illumination, g of AS/ha=gram of active substance per hectare, l/ha=liter per hectare, S=sensitive, R=resistant) • 1. Pre-emergence action against weeds: seeds of various broad-leaved weed and weed grass biotypes (origins) were sown in a 8-13 cm diameter pot filled with natural soil of a standard field soil (loamy silt; non-sterile) and covered with a covering soil layer of about 1 cm. The pots were then cultivated in a greenhouse (12-16 h of light, temperature day 20-22° C., night 15-18° C.) until the time of application. The pots were treated at the BBCH stage 00-10 of the seeds/plants on a laboratory track sprayer with spray liquors comprising the compositions according to the invention, mixtures or components used individually, as WG, WP, EC or other formulations. The application rate for the spray application was 100-600 l of water/ha. After the treatment, the plants were returned to the greenhouses and, when required, treated with fertilizer and watered. • 2. Post-emergence action against weeds: seeds of various broad-leaved weed and weed grass biotypes (origins) were sown in a 8-13 cm diameter pot filled with natural soil of a standard field soil (loamy silt; non-sterile) and covered with a covering soil layer of about 1 cm. The pots were then cultivated in a greenhouse (12-16 h of light, temperature day 20-22° C., night 15-18° C.) until the time of application. […]

HORVW [4] = assay: as above; type: in vivo, Hordeum vulgare, winter barley; conditions: g of AS/ha: (A) 90, (B) 300, (C) mefenpyr 300
Experimental: as §1, §2

VIOAR [5] = assay: Greenhouse trial, incorporation of active compound into the soil covering layer, action against weeds; type: in vivo, Viola arvensis; conditions: g of AS/ha: (A) 90, (B) 300, (C) mefenpyr 300
Experimental: as §1, §2

TRZAW [6] = assay: Greenhouse trial, incorporation of active compound into the soil covering layer, crop plant; type: in vivo, Triticum aestivum, winter wheat; conditions: g of AS/ha: (A) 90, (B) 300, (C) mefenpyr 300
Experimental: as §1, §2

TRZAS [7] = assay: as above; type: in vivo, Triticum aestivum, summer wheat; conditions: g of AS/ha: (A) 90, (B) 300, (C) mefenpyr 300
Experimental: as §1, §2

HORVW [8] = assay: as above; type: in vivo, Hordeum vulgare, winter barley; conditions: g of AS/ha: (A) 90, (B) 300, (C) mefenpyr 300
Experimental: as §1, §2

ALOMY = assay: Greenhouse trial, post-emergence (PO) action against weeds; type: in vivo, Alopecurus myosuroides; conditions: PO application; g of AS/ha: (A) 120, (B) 600
Experimental: as §1, §2

POAAN = assay: as above; type: in vivo, Poa annua; conditions: PO application; g of AS/ha: (A) 120, (B) 600
Experimental: as §1, §2

AVEFA [9] = assay: as above; type: in vivo, Avena fatua; conditions: PO application; g of AS/ha: (A) 120, (B) 600
Experimental: as §1, §2

HORVS = assay: Greenhouse trial, selective post-emergence (PO) action, crop plant; type: in vivo, Hordeum vulgare, summer barley; conditions: PO application, g of AS/ha: (A) 120, (B) 600
Experimental: as §1, §2

STEME [10] = assay: Greenhouse trial, PE application (comparison with pre-sowing method), weeds; type: in vivo, Stellaria media; conditions: g of AS/ha: (A) 90, (B) 300
Experimental: as §1, §2

AVEFA [11] = assay: as above; type: in vivo, Avena fatua; conditions: g of AS/ha: (A) 90, (B) 300
Experimental: as §1, §2

STEME [12] = assay: Greenhouse trial, pre-sowing application 7 days prior to sowing, weeds; type: in vivo, Stellaria media; conditions: g of AS/ha: (A) 90, (B) 300
Experimental: as §1, §2

AVEFA [13] = assay: as above; type: in vivo, Avena fatua; conditions: g of AS/ha: (A) 90, (B) 300
Experimental: as §1, §2

TRZAS [14] = assay: Greenhouse trial, pre-sowing application 7 days prior to sowing, crop plant; type: in vivo, Triticum aestivum, summer wheat; conditions: g of AS/ha: (A) 90, (B) 300
Experimental: as §1, §2

LOLPE = assay: Greenhouse trial, PE application with different soil types; type: in vivo, Lolium perenne; conditions: g of AS/ha: (A) 90, (B) 300
Experimental: as §1, §3, §4

STEME [15] = assay: Greenhouse trial, PE application on sensitive and resistant biotypes; type: in vivo, Stellaria media; conditions: g of AS/ha: (A) 120, (B) 600, iodosulfuron 10; for STEME resistant activity (visual, scale 0-100%): resistant biotype; for STEME sensitive activity (visual, scale 0-100%): sensitive biotype
Experimental: as §1, §3
(§5) (notes: the term “seeds” also includes vegetative propagation forms such as, for example, rhizome pieces; abbreviations used: h light=hours of illumination, g of AS/ha=gram of active substance per hectare, l/ha=liter per hectare, S=sensitive, R=resistant) • 1. Pre-emergence action against weeds: seeds of various broad-leaved weed and weed grass biotypes (origins) were sown in a 8-13 cm diameter pot filled with natural soil of a standard field soil (loamy silt; non-sterile) and covered with a covering soil layer of about 1 cm. The pots were then cultivated in a greenhouse (12-16 h of light, temperature day 20-22° C., night 15-18° C.) until the time of application. The pots were treated at the BBCH stage 00-10 of the seeds/plants on a laboratory track sprayer with spray liquors comprising the compositions according to the invention, mixtures or components used individually, as WG, WP, EC or other formulations. The application rate for the spray application was 100-600 l of water/ha. After the treatment, the plants were returned to the greenhouses and, when required, treated with fertilizer and watered. • 2. Post-emergence action against weeds: seeds of various broad-leaved weed and weed grass biotypes (origins) were sown in a 8-13 cm diameter pot filled with natural soil of a standard field soil (loamy silt; non-sterile) and covered with a covering soil layer of about 1 cm. The pots were then cultivated in a greenhouse (12-16 h of light, temperature day 20-22° C., night 15-18° C.) until the time of application. The pots were treated at various BBCH stages between 11-25 of the seeds/plants, i.e. generally between two to three weeks after the start of the cultivation, on a laboratory track sprayer with spray liquors comprising the compositions according to the invention, mixtures or components used individually, as WG, WP, EC or other formulations. The application rate for the spray application was 100-600 l of water/ha. After the treatment, the plants were returned to the greenhouses and, when required, treated with fertilizer and watered. • 3. Pre-emergence action against weeds with and without incorporation of active compound: seeds of various broad-leaved weed and weed grass biotypes (origins) were sown in a 8-13 cm diameter pot filled with natural soil of a standard field soil (loamy silt; non-sterile). […]

MATCH = assay: as above; type: in vivo, Matricaria chamomilla; conditions: g of AS/ha: (A) 120, (B) 600, iodosulfuron 10; for MATCH resistant activity (visual, scale 0-100%): resistant biotype; for MATCH sensitive activity (visual, scale 0-100%): sensitive biotype
Experimental: as §1, §3, §5

[16] = g of AS/ha: (A) 90, (B) 300, (C) mefenpyr 300
[17] = g of AS/ha: (A) 90, (B) 300, Table 3

Row | Compound | VIOAR activity (visual, scale 0-100%) (VIOAR [1]) [%] | TRZAW activity (visual, scale 0-100%) (TRZAW [2]) [%] | TRZAS activity (visual, scale 0-100%) (TRZAS [3]; [16]) [%] | TRZAS activity (visual, scale 0-100%) (TRZAS [3]; [17]) [%] | HORVW activity (visual, scale 0-100%) (HORVW [4]) [%] | VIOAR activity (visual, scale 0-100%) (VIOAR [5]) [%] | TRZAW activity (visual, scale 0-100%) (TRZAW [6]) [%] | TRZAS activity (visual, scale 0-100%) (TRZAS [7]) [%] | HORVW activity (visual, scale 0-100%) (HORVW [8]) [%] | ALOMY activity (visual, scale 0-100%) (ALOMY) [%] | POAAN activity (visual, scale 0-100%) (POAAN) [%] | AVEFA activity (visual, scale 0-100%) (AVEFA [9]) [%] | HORVS activity (visual, scale 0-100%) (HORVS) [%] | STEME activity (visual, scale 0-100%) (STEME [10]) [%] | AVEFA activity (visual, scale 0-100%) (AVEFA [11]) [%] | STEME activity (visual, scale 0-100%) (STEME [12]) [%] | STEME resistant activity (visual, scale 0-100%) (STEME [15]) [%] | STEME sensitive activity (visual, scale 0-100%) (STEME [15]) [%] | MATCH resistant activity (visual, scale 0-100%) (MATCH) [%] | MATCH sensitive activity (visual, scale 0-100%) (MATCH) [%] | other results
1 | CCCN(CCC)c1c([N+](=O)[O-])cc(C(F)(F)F)cc1[N+](=O)[O-] [(B) trifluralin, 2,6-dinitro-N,N-dipropyl-4-(trifluoromethyl)benzenamine] | 0 | 20 | 0 | 0 | 0 | 10 | 100 | 90 | 60 | 30 | 40 | 20 | 20 | 10 | 70 | 30 | 20 | 20 | 20 | 20 | AVEFA activity (visual, scale 0-100%) (AVEFA [13]): 60%; TRZAS activity (visual, scale 0-100%) (TRZAS [14]): 20%; LOLPE IU soil activity (visual, scale 0-100%) (LOLPE): 55%; LOLPE IU/EC73 soil activity (visual, scale 0-100%) (LOLPE): 0%
2 | COc1nc(C)nc(NC(=O)NS(=O)(=O)c2cc(I)ccc2C(=O)O)n1 [(C) iodosulfuron] | – | – | – | – | – | – | – | – | – | – | – | – | – | – | – | – | 40 | 90 | 60 | 100 | –
3 | CC(C)N(C(=O)COc1nnc(C(F)(F)F)s1)c1ccc(F)cc1 [(A) flufenacet, N-(4-fluorophenyl)-N-(1-methylethyl)-2-[[5-(trifluoromethyl)-1,3,4-thiadiazol-2-yl]oxy]acetamide] | 0 | 30 | 20 | 20 | 20 | 0 | 60 | 50 | 60 | 65 | 60 | 70 | 40 | 0 | 80 | 35 | 0 | 0 | 50 | 50 | AVEFA activity (visual, scale 0-100%) (AVEFA [13]): 70%; TRZAS activity (visual, scale 0-100%) (TRZAS [14]): 50%; LOLPE IU soil activity (visual, scale 0-100%) (LOLPE): 95%; LOLPE IU/EC73 soil activity (visual, scale 0-100%) (LOLPE): 74%
